From PubChem BioAssay AID1053144 (Broad Institute, 2014) come the findings set out here.

The assay concerns NPC TCF/LEF luciferase reporter, Wnt3a EC25, 24 h. Description: TCF/LEF reporter activation in neural progenitors – cell-based, iPS-derived NPC, luciferase, Wnt3a, cherry-pick, dose response (AID 1053144).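 Further: Wnt3a stimulus is conditioned medium from Wnt3a-transfected mouse L cells at 5% in well.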

Consider `CC1=NN(c2ccccc2)C(=O)C1N=Nc1ccccc1` (centres undefined), for which the AC30 was 4.78 µM.

Take `Cc1cccc(NC(=O)c2ccccn2)c1C`: the AC30 was 11.4 µM.

For `Nc1nc(-c2cc3ccccc3o2)cs1`, the AC30 is 4.78 µM.

For the molecule `Fc1ccccc1-c1ccc(/C=N/Nc2nc3ccccc3[nH]2)o1`, the AC30 is 17.3 µM.

Turning to `O=[N+]([O-])c1ccccc1-c1nc(-c2ccc(Br)o2)no1`, the AC30 is 4.78 µM.

Regarding `COc1ccc(C(=O)COC(=O)c2sccc2C)cc1OC`, the AC30 was 11.8 µM.

Regarding `COc1cc(C(=O)O/N=C2\C=CC(=O)C(C)=C2)cc(OC)c1OC`, the AC30 is 16 µM.

Take `CCOC(=O)c1c(Nc2ccc(OC)cc2)n[nH]c1C`: the AC30 is 11.4 µM.

Turning to `COc1cccc(-c2csc(NC(=O)C3CC3)n2)c1`, the AC30 is 13.9 µM.

As for `O=C(/C=C/c1ccco1)NCCc1ccccc1`, the AC30 is 5.05 µM.

For `O=C(NCCN1CCOCC1)c1cc(-c2ccccc2)on1`, the AC30 is 8.01 µM.

With `Cc1ccc2nc(-c3ccc(NS(=O)(=O)c4ccc(F)cc4)cc3)sc2c1`, the AC30 is 4.78 µM.

On to `COCCNC(=O)c1cc2c(s1)-c1ccc(Cl)cc1SC2`, for which the AC30 is 11.2 µM.

On to `O=C1Nc2ccccc2S/C1=C/c1cccs1`, for which the AC30 is 12.9 µM.

Consider `O=C1C=C(c2ccc3[nH]ccc3c2)CCC1`, for which the AC30 is 10.1 µM.

On to `COCCNC(=O)c1cc(-c2cccs2)on1`, for which the AC30 is 16.9 µM.

`COc1cccc(NC(=O)c2csc3c2CCCC3)c1`: the AC30 was 4.78 µM.

As for `O=C(Nc1ccc(Br)cn1)c1ccc(Br)s1`, the AC30 was 4.78 µM.

For the molecule `Cc1oc(=O)c(NC(=O)c2cccc(Cl)c2)cc1C(=O)c1ccccc1`, the AC30 was 7.11 µM.

As to `Oc1ccccc1-c1nnc(COc2ccc(Cl)cc2Cl)o1`, the AC30 was 10.5 µM.

With `Nc1ccc2nc(-c3ccccc3)cnc2c1`, the AC30 is 8.28 µM.

`O=c1oc2ccccc2cc1-c1nc2ccccc2o1`: the AC30 is 8.58 µM.

For the molecule `Cc1ccccc1NC(=O)c1cc2ccccn2n1`, the AC30 is 4.78 µM.

Regarding `CCOC(=O)c1c(C)[nH]c(C(=O)COC(=O)C2(C)CC2(Cl)Cl)c1C` (centres undefined), the AC30 is 6.45 µM.

For `Cc1cc(-c2nc3ccccc3c(=O)o2)ccc1[N+](=O)[O-]`, the AC30 is 16.2 µM.

Take `Cc1ccc2cc(/C=C/C(=O)c3ccco3)c(Cl)nc2c1`: the AC30 was 16.8 µM.

With `CCOC(=O)C(NC(=O)c1ccc(F)cc1)(Nc1sc2c(c1C(N)=O)CCC2)C(F)(F)F` (centres undefined), the AC30 is 16.3 µM.

For `Cc1csc(=NC(=O)c2ccccc2)n1C`, the AC30 is 8.72 µM.

As for `Cc1ccc(Nc2ncccc2C(N)=O)cc1[N+](=O)[O-]`, the AC30 was 5.42 µM.

In the case of `COc1ccc(N=C(C)c2sc3ccccc3c2O)cc1`, the AC30 was 4.78 µM.

For `Cc1ccsc1/C=N\NC(=O)c1ccc2c(c1)OCO2`, the AC30 was 4.78 µM.

In the case of `CC1(C)CC(=O)C2=C(C1)c1c(ccc3ccccc13)NC2c1ccco1` (centres undefined), the AC30 was 14.8 µM.

As for `Cc1ccc2nc(-c3ccc(NS(=O)(=O)c4c(C)n(C)c(=O)n(C)c4=O)cc3)sc2c1`, the AC30 is 2.2 µM.

`COc1ccc(CCNC(=O)c2cc(-c3ccco3)on2)cc1OC`: the AC30 was 11.4 µM.

As for `COc1cccc(-c2nnc(SCC(=O)N(C(C)C)C(C)C)o2)c1`, the AC30 was 20.7 µM.

`CCNc1nc(N)c(C(=O)c2ccc(Cl)s2)s1`: the AC30 was 11.3 µM.

Consider `CCc1ccccc1NC(=O)c1cccc(NC(=O)/C=C/c2ccco2)c1`, for which the AC30 was 13.2 µM.

`Cc1ccc(C(=O)Nc2cccc(-c3ccc(N4CCOCC4)nn3)c2)cc1[N+](=O)[O-]`: the AC30 is 9.12 µM.

As for `CSc1ccccc1C(=O)Nc1ccc2c(c1)CCC2`, the AC30 is 3.13 µM.

`COc1ccc2[nH]c(=O)c(CNc3ccccc3C)cc2c1`: the AC30 is 17.3 µM.

For `O=C(Nc1ncccc1O)c1ccc2c(c1)OCO2`, the AC30 was 7.75 µM.

On to `O=[N+]([O-])c1cccc(-c2nnc(-c3ccccc3F)o2)c1`, for which the AC30 is 8.84 µM.

Turning to `Cc1ccc(C(=O)NNc2ncnc3ccccc23)cc1`, the AC30 was 8.88 µM.

Regarding `CCC(=O)NC1=C(Nc2ccc(N)cc2)C(=O)c2ccccc2C1=O`, the AC30 is 5.42 µM.

On to `O=C(/C=C/c1ccco1)Nc1ccc2c(c1)OCO2`, for which the AC30 is 12.1 µM.

With `Nc1ccc(N=Nc2ccccc2Cl)c(N)n1`, the AC30 was 4.42 µM.

`Oc1ccc(Br)cc1-c1cc(-c2ccccc2F)[nH]n1`: the AC30 was 12.9 µM.

Take `O=C(N/N=C/C(Br)=C\c1ccccc1)c1cccs1`: the AC30 is 13.7 µM.

With `O=C(NCCc1c[nH]c2ccccc12)c1cc2ccccc2oc1=O`, the AC30 is 13.4 µM.

As for `COc1ccc(NC(=O)n2ncc3c(C)cccc32)cc1`, the AC30 was 4.78 µM.

For `O=C(Nc1ccc(Cl)cc1)OCc1ccccn1`, the AC30 is 9.15 µM.

Take `O=c1[nH]c(=O)n([C@H]2C[C@H](O)[C@@H](CO)O2)cc1Br`: the AC30 was 13.2 µM.

For `c1ccc2c(c1)oc1c(Nc3ccc4c(c3)OCO4)ncnc12`, the AC30 is 4.78 µM.

As to `CCCCOC(=O)Nc1ccc(C(=O)OC)cc1`, the AC30 is 11.7 µM.

As to `CCn1c(SCC(=O)c2ccc(Cl)cc2)nnc1C(C)C`, the AC30 is 12.1 µM.

With `O=C(NCC1CCCO1)c1cc(-c2ccc(F)cc2)no1` (centres undefined), the AC30 was 15.9 µM.

Consider `COc1ccc(C(=O)O/N=C(\N)c2ccc(Cl)cc2)cc1`, for which the AC30 is 9.22 µM.

Take `O=C(/C=C\c1ccc(-c2ccccc2)o1)c1ccccc1`: the AC30 is 4.16 µM.

For `Cc1cccc(/C(N)=N/OC(=O)c2ccc(Br)o2)c1`, the AC30 is 11.7 µM.

In the case of `Cc1[nH]c2ccccc2c1/C=N/Nc1nc2ccccc2[nH]1`, the AC30 was 5.61 µM.

For the molecule `COc1ccccc1CNC(=O)COc1ccccc1C(=O)c1cnn(-c2ccccc2)c1`, the AC30 was 10 µM.

Consider `O=C(COc1ccc(F)cc1Br)N1CCc2ccccc21`, for which the AC30 is 4.78 µM.

In the case of `O=C(Nc1ccccc1O)c1ccc(NS(=O)(=O)c2cccc3cccnc23)cc1`, the AC30 was 3.53 µM.

Turning to `Clc1ccc(SCc2cn3ccsc3n2)cc1`, the AC30 is 8.8 µM.

As to `COc1ccc(C(=O)NC2=NCCS2)cc1`, the AC30 was 9.19 µM.

As to `O=C(Nc1ccccc1O)c1ccc(NC(=O)C2CC2)cc1`, the AC30 is 5.37 µM.

As for `O=C(Nc1nc2cc3c(cc2s1)OCCO3)c1ccc([N+](=O)[O-])o1`, the AC30 was 9.12 µM.

In the case of `Cc1cc(N(C)C)ccc1N=Nc1ccc2ncccc2c1`, the AC30 is 2.2 µM.

Consider `CN(C)S(=O)(=O)Oc1cccc(C(=O)Nc2cccc(Cl)c2)c1`, for which the AC30 was 13 µM.

In the case of `O=C(CCc1nnc(C2CCCCC2)o1)N1CCN(c2ccccc2F)CC1`, the AC30 is 8.97 µM.

Turning to `O=C(/C=C/c1ccccc1)c1c[nH]c2ccccc12`, the AC30 was 4.78 µM.

As to `COc1ccc(-c2ccc(SCC(=O)Nc3cc(C)on3)nn2)cc1OC`, the AC30 was 15.1 µM.

Consider `O=C(OCC(=O)c1ccc(Br)s1)c1ccc(O)cc1`, for which the AC30 was 15.8 µM.

Turning to `COc1ccc(NC(=O)c2ccccc2NC(=O)C2CCCCC2C(=O)O)cc1` (centres undefined), the AC30 is 19.3 µM.

Consider `COc1ccccc1C(=O)O/N=C(\N)c1ccc(Cl)cc1`, for which the AC30 was 6.87 µM.

Turning to `CC(=O)N(C)c1ccc(NC(=O)c2ccco2)cc1`, the AC30 is 11.6 µM.

Regarding `O=C(Cc1nc2ccccc2[nH]1)c1ccc([N+](=O)[O-])cc1`, the AC30 was 7.12 µM.

Consider `O=c1/c(=C\c2ccc(F)cc2)sc2n1CCCN=2`, for which the AC30 is 12.5 µM.

On to `O=C(c1cccs1)c1coc2ccc(O)cc12`, for which the AC30 is 15 µM.

For `O=c1cc(-c2cccs2)oc2ccc(Cl)cc12`, the AC30 is 5.83 µM.

Take `COc1ccc2oc(C(=O)c3ccccc3)c(N)c2c1`: the AC30 is 7.18 µM.

`COc1ccc(/C=C/c2ccncc2)cc1`: the AC30 is 11.1 µM.

Regarding `Nc1ccc(-c2nc3cc([N+](=O)[O-])ccc3o2)cc1`, the AC30 is 4.78 µM.

In the case of `O=C1c2ccccc2C(=O)C1c1ccc(O)cc1`, the AC30 is 14.7 µM.
